From publication PMC8765437, “GSK3640254 Is a Novel HIV-1 Maturation Inhibitor with an Optimized Virology Profile” (Antimicrobial Agents and Chemotherapy, 2022)
Read-outs that look alike come from different tables or passages of the source.

Test system: NLRepRlucP373S viruses containing Gag SDMs or gag/pr genes from clinical isolates
Assay: Multiple-cycle replication assay, NLRepRluc reporter viruses in MT-2 cells, luciferase endpoint
Format: cell-based, HIV-1
Description: Multiple-cycle assays using recombinant viruses or clinical isolates were used to assess MI antiviral activity as described previously ([10]). pNLRepRlucP373S (the P373S change is in the Gag gene and converts an outlier polymorphism in the NL4-3 gene to the prevalent amino acid in the population) plasmids containing SDMs in Gag or gag/pr regions from clinical isolates were transfected into HEK 293T cells, and the supernatant containing recombinant virus was harvested after 4 to 5 days. Virus was used to infect MT-2 cells in the presence of a 3-fold serially diluted compound at a final dimethyl sulfoxide (DMSO) concentration of 1%. The inocula of the reporter viruses were determined based on the luciferase activity detected on day 4 postinfection. The MOI (ratio of infectious virions to target cells) of reporter-free laboratory strains and clinical isolates was 0.005, as derived from a tissue culture infectious dose study. Clinical isolates or reporter-free viruses were examined in the reporter CEM-NKR-CCR5-Luc cells or PBMCs at MOIs ranging from 0.005 to 0.01. Each infection started with a drug-free preincubation of the cell-virus mixtures, performed at 37°C and 5% CO2 for either 1 h at 2 times the final cell density (reporter viruses) or 1 h (reporter-free laboratory strains) or 3 h (clinical isolates) using cell pellets in 0.5 mL of medium. After preincubation, cell-virus mixtures were added to compound-containing 96-well plates for a final cell density of either 10,000 (MT-2 cells for reporter viruses), 20,000 (MT-2 and PM1 cells for reporter-free laboratory strains), 200,000 (PBMCs for clinical isolates), or 500,000 (CEM-NKR-CCR5-Luc for reporter-free laboratory strains) cells per well. The CEM-NKR-CCR5-Luc cell assay was performed in the presence of Polybrene (10 μg/mL). Virus growth was determined on days 4 to 5 postinfection for reporter variants or days 5 to 11 for the other viruses. The reporter viruses were detected by a luciferase assay according to manufacturer protocols (Brite-Glo luciferase kit [Promega] for CEM-NKR-CCR5-Luc cells and Dual-Luciferase Reporter 1000 assay system [Promega] for the other cells), and luminescence was detected on a Wallac Trilux. The growth of clinical isolates in PBMCs was quantitated by reverse transcriptase activity in a 96-well scintillation proximity assay (SPA). Twenty microliters of culture supernatants was mixed with 40 μL of reaction cocktail (62.5 mM Tris-HCl [pH 7.8], 100 mM KCl, 0.0625% NP-40, 2.5 mM dithiothreitol [DTT], 6.25 mM MgCl2, 1 mM EGTA, 6.25 μg/mL of poly rA, 2.5 μg/mL of streptavidin SPA beads prebound with biotinylated-dT12-18, and 1 μCi of [^3H]TTP). Mixtures were incubated at 37°C for ∼3 h and quenched with 100 μl of 0.25 M EDTA per well. Luminescence was detected on a Wallac Trilux programmed for tritium counting with SPA beads in opaque plates. The growth of the reporter-free laboratory M-tropic strains and clinical isolates was monitored by a p24 enzyme-linked immunosorbent assay (ELISA; PerkinElmer Life Sciences, Waltham, MA) performed on culture supernatants. […] A 1:1,000 dilution of cell supernatant in PBS was generally observed to fall in the dynamic range of the endpoint signal.
Maximal percent inhibition values were calculated as MPI = 100 – (mean signals at the 2 highest concentrations of compound/mean signal of 2 no-drug control wells) × 100.

[1] = Human immunodeficiency virus 1, MT2, V370A, 10% FBS
[2] = Human immunodeficiency virus 1, MT2, Wild type, 10% FBS

C=C(C)[C@@H]1CC[C@]2(NCCN3CCS(=O)(=O)CC3)CC[C@]3(C)[C@H](CC[C@@H]4[C@@]5(C)CC=C(C6=CC[C@@](CF)(C(=O)O)CC6)C(C)(C)[C@@H]5CC[C@]43C)[C@@H]12 [GSK’254]
MPI (A366V-containing viruses): −86 to 400%
EC50 (Human immunodeficiency virus 1, MT2, 92BR018-genotyped NLRepRlucP373S virus): 1 nM
EC50 (Human immunodeficiency virus 1, MT2, 93BR008-genotyped NLRepRlucP373S virus): 2 nM
EC50 (Human immunodeficiency virus 1, MT2, R361K/V362I/L363M): 3 nM
EC50 (Human immunodeficiency virus 1, MT2, Table S1, SDM R361K/V362I/L363M): 3 nM
EC50 (Human immunodeficiency virus 1, MT2, Table S1, SDM S368R/V370A): 1 nM
EC50 (Human immunodeficiency virus 1, MT2, Table S1, SDM V362I/V370A): 3 nM
EC50 (Human immunodeficiency virus 1, MT2, Table S1, SDM V370A): 2 nM
EC50 (Human immunodeficiency virus 1, MT2, Table S1, SDM V370A/ΔT371): 3 nM
EC50 (Human immunodeficiency virus 1, MT2, Table S1, SDM ΔV370): 3 nM
EC50 (Human immunodeficiency virus 1, MT2, Table S1, subtype B SDM Wild-type (V, QVT)): 3 nM
EC50 (Human immunodeficiency virus 1, MT2, V362I/V370A): 3 nM
EC50 [1]: 1.5 nM
EC90 [1]: 3 nM
EC50 [2]: 1.4 nM
EC90 [2]: 3.6 nM
EC50 (Human immunodeficiency virus 1, MT2, read-out: EC50 (range), Subtype B gag/pr viruses, n=24): 0.5 to 7 nM
EC50 (Human immunodeficiency virus 1, MT2, read-out: EC50 (range), Subtype C gag/pr viruses, n=11): 1 to 2 nM
EC50 (Human immunodeficiency virus 1, MT2, read-out: EC50 (range), V362I only viruses, n=9): 1 to 7 nM
EC50 (Human immunodeficiency virus 1, MT2, read-out: EC50 (range), Wild-type subtype B, n=5): 0.5 to 2 nM
EC50 (Human immunodeficiency virus 1, MT2, read-out: Mean ± SD EC50, A366V-containing viruses (A366V, V362I/A366V, V362I/A366V/V370M, A366V/V370M)): > 3000 nM
EC50 (Human immunodeficiency virus 1, MT2, read-out: Mean ± SD EC50, SDM A326T/V362I/V370A): 26 ± 70 nM
EC50 (Human immunodeficiency virus 1, MT2, read-out: Mean ± SD EC50, SDM A364V): 274 ± 505 nM
EC50 (Human immunodeficiency virus 1, MT2, read-out: Mean ± SD EC50, SDM R361K/V362I/L363M): 3 ± 1 nM
EC50 (Human immunodeficiency virus 1, MT2, read-out: Mean ± SD EC50, SDM T332S/V362I/prR41G): 7 ± 4 nM
EC50 (Human immunodeficiency virus 1, MT2, read-out: Mean ± SD EC50, SDM V362I/V370A): 3 ± 1 nM
EC50 (Human immunodeficiency virus 1, MT2, read-out: Mean ± SD EC50, SDM V370A): 2 ± 1 nM
EC50 (Human immunodeficiency virus 1, MT2, read-out: Mean ± SD EC50, SDM Wild type): 3 ± 2 nM
EC50 (Human immunodeficiency virus 1, MT2, read-out: Mean ± SD EC50, SDM ΔV370): 3 ± 1 nM
EC50 (Human immunodeficiency virus 1, MT2, read-out: Mean ± SD EC50, Subtype B gag/pr viruses, n=24): 1.9 ± 1.5 nM
EC50 (Human immunodeficiency virus 1, MT2, read-out: Mean ± SD EC50, Subtype C gag/pr viruses, n=11): 1.2 ± 0.4 nM
EC50 (Human immunodeficiency virus 1, MT2, read-out: Mean ± SD EC50, V362I only viruses, n=9): 2.7 ± 2 nM
EC50 (Human immunodeficiency virus 1, MT2, read-out: Mean ± SD EC50, V362I/ΔV370 virus, n=1): 3 nM
EC50 (Human immunodeficiency virus 1, MT2, read-out: Mean ± SD EC50, Wild-type subtype B (V362, Q369, V370, T371), n=5): 1.1 ± 0.5 nM
EC50 (Human immunodeficiency virus 1, MT2, read-out: Median EC50, Subtype B gag/pr viruses, n=24): 1 nM
EC50 (Human immunodeficiency virus 1, MT2, read-out: Median EC50, Subtype C gag/pr viruses, n=11): 1 nM
EC50 (Human immunodeficiency virus 1, MT2, read-out: Median EC50, V362I only viruses, n=9): 2 nM
EC50 (Human immunodeficiency virus 1, MT2, read-out: Median EC50, Wild-type subtype B, n=5): 1 nM
EC90 (Human immunodeficiency virus 1, MT2, read-out: PBA EC90, Table S1, SDM A326T/V362I/V370A): 117 nM
EC90 (Human immunodeficiency virus 1, MT2, read-out: PBA EC90, Table S1, SDM R361K/V362I/L363M): 50 nM
EC90 (Human immunodeficiency virus 1, MT2, read-out: PBA EC90, Table S1, SDM S368R/V370A): 9 nM
EC90 (Human immunodeficiency virus 1, MT2, read-out: PBA EC90, Table S1, SDM T332S/V362I/PrR41G): 77 nM
EC90 (Human immunodeficiency virus 1, MT2, read-out: PBA EC90, Table S1, SDM V362I/V370A): 18 nM
EC90 (Human immunodeficiency virus 1, MT2, read-out: PBA EC90, Table S1, SDM V370A): 21 nM
EC90 (Human immunodeficiency virus 1, MT2, read-out: PBA EC90, Table S1, SDM V370A/ΔT371): 40 nM
EC90 (Human immunodeficiency virus 1, MT2, read-out: PBA EC90, Table S1, SDM ΔV370): 57 nM
EC90 (Human immunodeficiency virus 1, MT2, read-out: PBA EC90, Table S1, subtype B SDM Wild-type (V, QVT)): 24 nM
EC90 (Human immunodeficiency virus 1, MT2, read-out: PBA EC90, subtype B gag/pr 4NRR (Wild-type)): 25 nM
EC90 (Human immunodeficiency virus 1, MT2, read-out: PBA EC90, subtype B gag/pr 28-MDR (Wild-type)): 37 nM
EC90 (Human immunodeficiency virus 1, MT2, read-out: PBA EC90, subtype B gag/pr 92BR014 (V370M)): 11 nM
EC90 (Human immunodeficiency virus 1, MT2, read-out: PBA EC90, subtype B gag/pr 92BR018 (V, QAΔ)): 26 nM
EC90 (Human immunodeficiency virus 1, MT2, read-out: PBA EC90, subtype B gag/pr 92TH014 (V362I)): 12 nM
EC90 (Human immunodeficiency virus 1, MT2, read-out: PBA EC90, subtype B gag/pr 92TH026 (V362I)): 32 nM
EC90 (Human immunodeficiency virus 1, MT2, read-out: PBA EC90, subtype B gag/pr 92US072 (V362I)): 21 nM
EC90 (Human immunodeficiency virus 1, MT2, read-out: PBA EC90, subtype B gag/pr 92US729 (Wild-type)): 13 nM
EC90 (Human immunodeficiency virus 1, MT2, read-out: PBA EC90, subtype B gag/pr 93BR008 (V362I)): 30 nM
EC90 (Human immunodeficiency virus 1, MT2, read-out: PBA EC90, subtype B gag/pr 93BR017 (V, QAΔ)): 20 nM
EC90 (Human immunodeficiency virus 1, MT2, read-out: PBA EC90, subtype B gag/pr 93BR022 (V, QAΔ)): 28 nM
EC90 (Human immunodeficiency virus 1, MT2, read-out: PBA EC90, subtype B gag/pr 93BR024 (V362I)): 180 nM
EC90 (Human immunodeficiency virus 1, MT2, read-out: PBA EC90, subtype B gag/pr 93TH0647 (V362I)): 23 nM
EC90 (Human immunodeficiency virus 1, MT2, read-out: PBA EC90, subtype B gag/pr 93US141 (V362I)): 37 nM
